Structures can show the parent of a compound that is named as a salt.

The text below walks through data of patent US9951051B2, “Process for producing alkynylketone derivative” (Shionogi & Co., Ltd., priority 2014, dated 2018).

The data set can be described thus: Solubility test of methanesulfonate of Compound represented by Formula (II″). Conditions: HPLC method A; for concentration in supernatant solution (solubility): 20 to 25 °C, slurry stirred over two hours; for concentration of crystalline form dissolved into the solution: Conditions in Example 2 (DMSO/NMM/THF/MeCN), 0 °C. The data set is classed as physicochemical. As to the method: Crystalline form of methanesulfonate of Compound represented by Formula (II″) and crystalline form of free form of Compound represented by Formula (II″) were suspended in tetrahydrofuran or acetonitrile, respectively. The slurries were stirred at 20° C. to 25° C. for over two hours, and then the concentration in each supernatant solution was measured (HPLC method A). The HPLC results of the concentration in each supernatant solution are indicated as Table 12.
Moreover, the concentration of each crystalline form being dissolved into the solution at 0° C. in Step 1 (Step to obtain the crystalline form of methanesulfonate) and Step 2 (Step to obtain the crystalline form of free form) in Example 2 was measured by HPLC method A and compared (Table 12).

`CC#CC(=O)c1ccc2ncnc(Nc3ccc(OCc4cccc(F)c4)c(Cl)c3)c2c1` [Free form of Formula (II″), 4-(3-chloro-4-(3-fluorobenzyloxy)phenylamino)-6-(1-oxo-2-butyn-1-yl)quinazoline]: the “concentration of crystalline form dissolved into the solution” value is given as 15.7%. Moreover, the “concentration in supernatant solution (solubility)” value (“concentration … (solubility)” for short) (Acetonitrile) is recorded as 0.3%. Also, the “concentration of crystalline form dissolved into the solution” value (listed as free form of Compound represented by (II″)) came to 15.7%. Besides, the “concentration … (solubility)” value (Tetrahydrofuran) was 3.6%.
`CC#CC(=O)c1ccc2ncnc(Nc3ccc(OCc4cccc(F)c4)c(Cl)c3)c2c1` [MsOH salt of Formula (II″)]: the “concentration of crystalline form dissolved into the solution” value is recorded as 3.1%. For the same molecule, where the note is “Acetonitrile”, the “concentration … (solubility)” value is 0.05%. In addition, the “concentration of crystalline form dissolved into the solution” value (listed as methanesulfonate of Compound represented by (II″)) was 3.1%. Besides, the “concentration … (solubility)” value (Tetrahydrofuran) came out at 0.05%.
